Tested on: 292921-168-R-J2-PDC complex spheroid growth
Experiment: Anticancer human tumor 292921-168-R-J2-PDC patient-derived pancreatic carcinoma cell line growth inhibition [AhR]
Conditions: for IC50: curve of first compound; for viability, T/C: stronger effect = lower value
Outline: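 Agents were dosed in half-log steps down from roughly clinical Cmax, or from 10 microM where Cmax was unknown, alone and with AhR antagonists. Read-out: percent test/control growth of tumor spheroids containing HUVEC and MSC stromal cells.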
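Note: spheroids exposed to compounds for seven days after three days of growth.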

For `NS(=O)(=O)OCC1CC(n2ccc3c(NC4CCc5ccccc54)ncnc32)CC1O` (stereo not given) + Cc1cncc(-c2nc(NCCc3c[nH]c4ccccc34)c3ncn(C(C)C)c3n2)c1, the IC50 (second compound 0.1 µM) was 227 nM, the IC50 (second compound 0.316 µM) was 224 nM and the IC50 (second compound 1 µM) was 231 nM. For the same molecule, the IC50 (second compound 3.16 µM) was 229 nM, the IC50 (second compound 10 µM) was 221 nM and the viability, T/C (second compound 0.1 µM, first compound 0.0316 µM) was 136%. It also gave a viability, T/C (second compound 0.1 µM, first compound 0.1 µM) of 111%, a viability, T/C (second compound 0.1 µM, first compound 0.316 µM) of 25.1% and a viability, T/C (second compound 0.1 µM, first compound 1 µM) of 6.77%. The viability, T/C (second compound 0.1 µM, first compound 3.16 µM) was 5.38%, the viability, T/C (second compound 0.1 µM, first compound 10 µM) was 5.4% and the viability, T/C (second compound 0.316 µM, first compound 0.0316 µM) was 133%. For the same molecule, the viability, T/C (second compound 0.316 µM, first compound 0.1 µM) was 108%, the viability, T/C (second compound 0.316 µM, first compound 0.316 µM) was 25.1% and the viability, T/C (second compound 0.316 µM, first compound 1 µM) was 7.33%. For the same molecule, the viability, T/C (second compound 0.316 µM, first compound 3.16 µM) was 5.81%, the viability, T/C (second compound 0.316 µM, first compound 10 µM) was 5.63% and the viability, T/C (second compound 1 µM, first compound 0.0316 µM) was 117%. The viability, T/C (second compound 1 µM, first compound 0.1 µM) was 104%, the viability, T/C (second compound 1 µM, first compound 0.316 µM) was 30% and the viability, T/C (second compound 1 µM, first compound 1 µM) was 6.44%. For the same molecule, the viability, T/C (second compound 1 µM, first compound 3.16 µM) was 6.99%, the viability, T/C (second compound 1 µM, first compound 10 µM) was 7.06% and the viability, T/C (second compound 3.16 µM, first compound 0.0316 µM) was 111%. It also gave a viability, T/C (second compound 3.16 µM, first compound 0.1 µM) of 93.7%, a viability, T/C (second compound 3.16 µM, first compound 0.316 µM) of 33.1% and a viability, T/C (second compound 3.16 µM, first compound 1 µM) of 8.82%. For the same molecule, the viability, T/C (second compound 3.16 µM, first compound 3.16 µM) was 7.53%, the viability, T/C (second compound 3.16 µM, first compound 10 µM) was 6.05% and the viability, T/C (second compound 10 µM, first compound 0.0316 µM) was 69.9%. For the same molecule, the viability, T/C (second compound 10 µM, first compound 0.1 µM) was 76.7%, the viability, T/C (second compound 10 µM, first compound 0.316 µM) was 39.5% and the viability, T/C (second compound 10 µM, first compound 1 µM) was 13%. For the same molecule, the viability, T/C (second compound 10 µM, first compound 3.16 µM) was 9.88% and the viability, T/C (second compound 10 µM, first compound 10 µM) was 7.28%.
